Results: ChEMBL document CHEMBL3885861, “Open TG-GATES”

Organism: Rattus norvegicus
Assay: Open TG-GATES - Regimen: Daily Repeat
Type: toxicity, organism-based, Sprague-Dawley
Set-up: regimen Daily Repeat, gender Male, age 6 weeks
Conditions: in vivo, po, 10 mg/kg, route gavage, dose level Low; for APTT / Bas / Eos / Fbg / Hb / Ht / Lym / MCH / MCHC / MCV / Mono / Neu / PT / Plat / RBC / Ret / WBC: tissue Blood
[1] = 72 h, tissue Kidney, time 3 day
[2] = 72 h, tissue Plasma, time 3 day

CCC1(c2ccccc2)C(=O)NC(=O)NC1=O [PHENOBARBITAL]
TERMINAL_BW (72 h, time 3 day): 224.1 g
APTT (72 h, time 3 day): 15.6 s
Bas (72 h, time 3 day): 0%
Eos (72 h, time 3 day): 1%
Fbg (72 h, time 3 day): 226.8 mg/dL
Hb (72 h, time 3 day): 13.3 g/dL
Ht (72 h, time 3 day): 39.6%
Lym (72 h, time 3 day): 71.6%
MCH (72 h, time 3 day): 22 pg
MCHC (72 h, time 3 day): 33.6%
MCV (72 h, time 3 day): 65.5 fL
Mono (72 h, time 3 day): 11.4%
Neu (72 h, time 3 day): 16.4%
PT (72 h, time 3 day): 11.9 s
Plat (72 h, time 3 day): 126.7 x10_4/uL
RBC (72 h, time 3 day): 605.2 x10_4/ul
Ret (72 h, time 3 day): 7.9%
WBC (72 h, time 3 day): 126 x10_2/uL
KIDNEY_L [1]: 1 g
KIDNEY_R [1]: 1 g
KIDNEY_TOTAL [1]: 2 g
LIVER (72 h, tissue Liver, time 3 day): 12 g
A/G [2]: 1.5
ALP [2]: 757.2 IU/L
ALT [2]: 34.6 IU/L
AST [2]: 61.6 IU/L
BUN [2]: 15.2 mg/dL
CRE [2]: 0.5 mg/dL
Ca [2]: 10.6 mg/dL
Cl [2]: 106.6 meq/L
DBIL [2]: 0.018 mg/dL
GLC [2]: 197.2 mg/dL
IP [2]: 8.3 mg/dL
K [2]: 4.8 meq/L
LDH [2]: 106.8 IU/L
Na [2]: 139 meq/L
PL [2]: 147.8 mg/dL
RALB [2]: 3.5 g/dL
TBIL [2]: 0.3 mg/dL
TC [2]: 83.4 mg/dL
TG [2]: 104.8 mg/dL
TP [2]: 5.8 g/dL
gamma-GTP [2]: 1.6 IU/L
TERMINAL_BW ([…], time 7 day): 253.6 g
TERMINAL_BW ([…], time 14 day): 311.1 g
TERMINAL_BW ([…], time 28 day): 391.1 g
APTT ([…], time 7 day): 16.3 s
Bas ([…], time 7 day): 0%
Eos ([…], time 7 day): 1%
Fbg ([…], time 7 day): 236 mg/dL
Hb ([…], time 7 day): 13.8 g/dL
Ht ([…], time 7 day): 41.2%
Lym ([…], time 7 day): 80.6%
MCH ([…], time 7 day): 21.8 pg
MCHC ([…], time 7 day): 33.4%
MCV ([…], time 7 day): 65.2 fL
Mono ([…], time 7 day): 3%
Neu ([…], time 7 day): 15.4%
PT ([…], time 7 day): 11.6 s
Plat ([…], time 7 day): 113.9 x10_4/uL
RBC ([…], time 7 day): 632.6 x10_4/ul
Ret ([…], time 7 day): 6.6%
WBC ([…], time 7 day): 95.6 x10_2/uL
APTT ([…], time 14 day): 16.6 s
Bas ([…], time 14 day): 0%
Eos ([…], time 14 day): 0.2%
Fbg ([…], time 14 day): 234.6 mg/dL
Hb ([…], time 14 day): 15 g/dL
Ht ([…], time 14 day): 45.1%
Lym ([…], time 14 day): 84.6%
MCH ([…], time 14 day): 20.6 pg
MCHC ([…], time 14 day): 33.3%
MCV ([…], time 14 day): 61.7 fL
Mono ([…], time 14 day): 5.8%
Neu ([…], time 14 day): 9.6%
PT ([…], time 14 day): 11.4 s
Plat ([…], time 14 day): 114.1 x10_4/uL
RBC ([…], time 14 day): 731.2 x10_4/ul
Ret ([…], time 14 day): 5%
WBC ([…], time 14 day): 141.4 x10_2/uL
APTT ([…], time 28 day): 17.6 s
Bas ([…], time 28 day): 0%
Eos ([…], time 28 day): 1%
Fbg ([…], time 28 day): 226.6 mg/dL
Hb ([…], time 28 day): 15 g/dL
Ht ([…], time 28 day): 43.9%
